Data set [1] in a line: Metabolic stability in human liver microsomes at 10 uM measured after 120 mins in presence of NADPH-GS by HPLC-MS/MS analysis. Type of data set: ADME, Microsome. Particulars: read-out: Stability. Background: Liver microsomes are a subcellular fraction often used to study metabolism.
Data set [2] relates to DU-145. The data set can be described thus: Antiproliferative activity against human DU-145 cells assessed as inhibition of cell growth measured after 96 hrs by MTT assay. Type of data set: functional, cell-based. Particulars: DU-145, 96 h. On the technique in general: Tetrazolium dyes change colour on reduction, which living cells bring about.
The subject of data set [3] is MDA-MB-231. The data set can be described thus: Antiproliferative activity against human MDA-MB-231 cells assessed as inhibition of cell growth measured after 96 hrs by MTT assay. Type of data set: functional, cell-based. The conditions noted are these: MDA-MB-231, 96 h.
Data set [4] deals with MDA-MB-231. The data set can be described thus: Antiproliferative activity against human MDA-MB-231 cells assessed as inhibition of cell growth at 10 uM measured after 96 hrs by MTT assay relative to control. Type of data set: functional.
Data set [5] can be described thus: Solubility of compound in water incubated for 10 mins. Type of data set: physicochemical.
Data set [6] in a line: Inhibition of IL-6/JAK/STAT3 signalling pathway in HEK-Blue IL-6 cells incubated for 16 hrs by QUANTI-blue assay. Type of data set: cell-based. Particulars: Homo sapiens, HEK-Blue IL-6, 16 h.
The test system of data set [7] is DU-145. The data set can be described thus: Antiproliferative activity against human DU-145 cells assessed as inhibition of cell growth at 10 uM measured after 96 hrs by MTT assay relative to control. Type of data set: functional.
A further data set relates to HEK-Blue IL-6. The data set can be described thus: Inhibition of IL-6/JAK/STAT3 signalling pathway in HEK-Blue IL-6 cells at 10 uM incubated for 16 hrs by QUANTI-blue assay relative to control. Type of data set: cell-based. Particulars: Homo sapiens.
Data set [8] can be described thus: Metabolic stability in mouse liver microsomes assessed as intrinsic clearance in presence of NADPH/UDPGA. Type of data set: ADME, Microsome. The conditions noted are these: read-out: CLH.
A short description of data set [9]: Metabolic stability in mouse liver microsomes assessed as half life in presence of NADPH/UDPGA. Type of data set: ADME, Microsome.

Values after ≈ are worked out from the molar mass of the structure shown. A value given as a limit tells only on which side of the number the result lay.

Regarding `COc1cc(-c2nnc(Nc3cc4nc(-c5ccc(F)cc5)n(C5CC5)c4cc3N3CCN(C)CC3)s2)cc(OC)c1OC`, the remaining at 2 h, 10 µM in data set [1] was found to be 32.5%. In addition, the IC50 with DU-145 [2] was determined as 1.05 µM; in the data set on MDA-MB-231 [3], 0.82 µM; in [6] it was 4.51 µM. In addition, the inhibition at 10 µM with MDA-MB-231 [4] was 92.5%; with DU-145 [7], 87.3%. The compound also returned a solubility at 10 min in [5] of 5.95 µg/mL (≈ 9.66 µM). Further, the inhibition in the data set with HEK-Blue IL-6 stood at 95.7%.

For the compound `O=c1ccc2ccc(O)cc2o1` [UMBELLIFERONE], the microsomal CLint in data set [8] came to 902 µL/min/mg. In addition, the half-life in [9] was 1.54 min.

In the case of `CCCn1c(-c2ccc(F)cc2)nc2cc(Nc3nnc(-c4cc(OC)c(OC)c(OC)c4)s3)c(N3CCN(C)CC3)cc21`, the remaining at 2 h, 10 µM in data set [1] worked out at 25%. The IC50 in the data set with DU-145 [2] worked out at 4.42 µM; in the data set on MDA-MB-231 [3], 0.8 µM; in data set [6], 2.38 µM. Further, the inhibition at 10 µM with MDA-MB-231 [4] worked out at 94.5%; with DU-145 [7], 80.7%. The inhibition in the data set on HEK-Blue IL-6 amounted to 108%.

As to `CN1CCN(c2cc3c(cc2Nc2nnc(-c4ccccc4)s2)nc(-c2ccc(F)cc2)n3C2CCCC2)CC1`, the IC50 is over 10 µM with DU-145 [2], over 10 µM in the data set on MDA-MB-231 [3] and 5.28 µM in [6]. Moreover, the inhibition at 10 µM with MDA-MB-231 [4] is -5.02%; with DU-145 [7] it was -26.6%. The inhibition with HEK-Blue IL-6 stood at 77.5%.

`Fc1ccc(-c2nc3cc(Nc4nnc(-c5cccc(Cl)c5)s4)c(F)cc3n2C2CC2)cc1`: the IC50 is over 10 µM with DU-145 [2], over 10 µM in the data set on MDA-MB-231 [3] and 3.37 µM in data set [6]. Also, the inhibition at 10 µM was -2.05% in the data set with MDA-MB-231 [4] and -7.76% in the data set with DU-145 [7]. Also, the inhibition in the data set on HEK-Blue IL-6 was 67.8%.

As for `CCOc1cc2c(cc1Nc1nnc(-c3cccc(C#N)c3)s1)nc(-c1ccc(F)cc1)n2C1CC1`, the 50% inhibitory concentration (IC50) was over 10 µM in the data set with DU-145 [2], over 10 µM with MDA-MB-231 [3] and 0.52 µM in [6]. Besides, the inhibition at 10 µM in the data set on MDA-MB-231 [4] is -5.91%; in the data set with DU-145 [7] it was 14%. In the data set with HEK-Blue IL-6, the inhibition came out at 92.5%.

With `Fc1cccc(-c2nc3cc(Nc4nnc(-c5cccc(C(F)(F)F)c5)s4)c(F)cc3n2C2CC2)c1`, the concentration for half-maximal inhibition (IC50) was over 10 µM in the data set with DU-145 [2], over 10 µM with MDA-MB-231 [3] and 0.41 µM in [6]. The inhibition at 10 µM in the data set on MDA-MB-231 [4] is 5.54%; with DU-145 [7], -7.06%. Moreover, the inhibition in the data set on HEK-Blue IL-6 was 90%.

Regarding `CN1CCN(c2cc3c(cc2Nc2nnc(-c4cccc(C(F)(F)F)c4)s2)nc(-c2ccc(F)cc2)n3C2CC2)CC1`, the concentration for half-maximal inhibition (IC50) in the data set with DU-145 [2] was 5.66 µM; in the data set on MDA-MB-231 [3], 3.98 µM; in data set [6] it was 2.23 µM. For the same compound, the inhibition at 10 µM with MDA-MB-231 [4] came out at 94.1%; with DU-145 [7], 64.6%. In addition, the inhibition with HEK-Blue IL-6 was determined as 100%.

Take `CN1CCN(c2cc3c(cc2Nc2nnc(-c4ccccc4)s2)nc(-c2ccc(Cl)cc2)n3C2CC2)CC1`: the values for the IC50 (with DU-145 [2]; in the data set with MDA-MB-231 [3]; in data set [6]) were over 10 µM, over 10 µM and 2.96 µM, respectively. Further, the inhibition at 10 µM in the data set with MDA-MB-231 [4] is 6.84%; with DU-145 [7], -4.82%. Further, the inhibition with HEK-Blue IL-6 was found to be 75.8%.

As for `COc1cc(-c2nnc(Nc3cc4nc(-c5ccc(F)cc5)n(C5CC5)c4cc3F)s2)cc(OC)c1OC`, the results for the IC50 (in the data set on DU-145 [2]; in the data set with MDA-MB-231 [3]; in data set [6]) were over 10 µM, over 10 µM and 1.09 µM, respectively. Also, the inhibition at 10 µM with MDA-MB-231 [4] is -11.5%; in the data set on DU-145 [7], -10.3%. For the same compound, in the data set with HEK-Blue IL-6, the inhibition came out at 83.5%.

In the case of `CC(C)n1c(-c2ccc(F)cc2)nc2cc(Nc3nnc(-c4ccccc4)s3)c(N3CCN(C)CC3)cc21`, the IC50 was over 10 µM with DU-145 [2], over 10 µM in the data set on MDA-MB-231 [3] and 3.12 µM in data set [6]. Moreover, the inhibition at 10 µM is 0.1% in the data set on MDA-MB-231 [4] and -4.96% with DU-145 [7]. In the data set with HEK-Blue IL-6, the inhibition stood at 71.4%.

As a reminder, the IC50 is the concentration at which inhibition is half-maximal. As a reminder, the inhibition is the drop in the measured response relative to a control, in per cent. As usually defined, the solubility is how much of the substance goes into solution per volume. Read a low solubility as little dissolved substance. The term half-life denotes the time in which the quantity being followed falls by half.

For the origin of these results see ChEMBL document CHEMBL5321275, “Discovery, Optimization, and Evaluation of Novel N-(Benzimidazol-5-yl)-1,3,4-thiadiazol-2-amine Analogues as Potent STAT3 Inhibitors for Cancer Treatment” (J Med Chem, 2023).
